Source: PubChem BioAssay AID2060500 (Molecular Pharmacology Branch, DTP, NCI, 2025)

Tested on: 596521-263-R-J1-PDC complex spheroids, viability % of control
Experiment: Anticancer human tumor 596521-263-R-J1-PDC patient-derived soft tissue sarcoma cell line growth inhibition [GQUAD]
Conditions: for IC50: curve of first compound; for viability, T/C: stronger effect = lower value
Method in brief: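 Tumor cells were grown as complex spheroids with HUVEC endothelial cells and mesenchymal stem cells as stroma. G-quadruplex stabilizers were combined with targeted agents over half-log dilutions from near the clinical Cmax, or from 10 microM.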

[1] = second compound 0.0316 µM, first compound 0.0316 µM
[2] = second compound 0.0316 µM, first compound 0.1 µM
[3] = second compound 0.0316 µM, first compound 0.316 µM
[4] = second compound 0.0316 µM, first compound 1 µM
[5] = second compound 0.0316 µM, first compound 3.16 µM
[6] = second compound 0.0316 µM, first compound 10 µM
[7] = second compound 0.1 µM, first compound 0.0316 µM
[8] = second compound 0.1 µM, first compound 0.1 µM
[9] = second compound 0.1 µM, first compound 0.316 µM
[10] = second compound 0.1 µM, first compound 1 µM
[11] = second compound 0.1 µM, first compound 3.16 µM
[12] = second compound 0.1 µM, first compound 10 µM
[13] = second compound 0.316 µM, first compound 0.0316 µM
[14] = second compound 0.316 µM, first compound 0.1 µM
[15] = second compound 0.316 µM, first compound 0.316 µM
[16] = second compound 0.316 µM, first compound 1 µM
[17] = second compound 0.316 µM, first compound 3.16 µM
[18] = second compound 0.316 µM, first compound 10 µM
[19] = second compound 1 µM, first compound 0.0316 µM
[20] = second compound 1 µM, first compound 0.1 µM
[21] = second compound 1 µM, first compound 0.316 µM
[22] = second compound 1 µM, first compound 1 µM
[23] = second compound 1 µM, first compound 3.16 µM
[24] = second compound 1 µM, first compound 10 µM
[25] = second compound 3.16 µM, first compound 0.0316 µM
[26] = second compound 3.16 µM, first compound 0.1 µM
[27] = second compound 3.16 µM, first compound 0.316 µM
[28] = second compound 3.16 µM, first compound 1 µM
[29] = second compound 3.16 µM, first compound 3.16 µM
[30] = second compound 3.16 µM, first compound 10 µM
[31] = second compound 10 µM, first compound 0.0316 µM
[32] = second compound 10 µM, first compound 0.1 µM
[33] = second compound 10 µM, first compound 0.316 µM
[34] = second compound 10 µM, first compound 1 µM
[35] = second compound 10 µM, first compound 3.16 µM
[36] = second compound 10 µM, first compound 10 µM
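Also: spheroids exposed to drugs for 7 days before viability reading.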
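For viability, T/C in this document: 100% = DMSO vehicle control viability.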

**Q.** Which IC50 (second compound 0.0316 µM) does the source give for `COc1cccc2c1C(=O)c1c(O)c3c(c(O)c1C2=O)CC(O)(C(=O)CO)CC3OC1CC(N)C(O)C(C)O1` (centres undefined) + CN(C)c1ccc(Nc2c3ccc(NC(=O)CCN4CCCC4)cc3nc3cc(NC(=O)CCN4CCCC4)ccc23)cc1 here?
**A.** 687 nM

**Q.** And the IC50 (second compound 0.1 µM)?
**A.** 910 nM

**Q.** What about the IC50 (second compound 0.316 µM) of the same compound?
**A.** 722 nM

**Q.** What about the IC50 (second compound 1 µM) of the same compound?
**A.** 787 nM

**Q.** What about the IC50 (second compound 3.16 µM) of the same compound?
**A.** 1010 nM

**Q.** What about the IC50 (second compound 10 µM) of the same compound?
**A.** 408 nM

**Q.** What about the viability, T/C [1] of the same compound?
**A.** 96.9%

**Q.** And the viability, T/C [2]?
**A.** 75.1%

**Q.** And the viability, T/C [3]?
**A.** 55.8%

**Q.** What about the viability, T/C [4] of the same compound?
**A.** 54.9%

**Q.** And the viability, T/C [5]?
**A.** 29.7%

**Q.** What about the viability, T/C [6] of the same compound?
**A.** 3.98%

**Q.** And the viability, T/C [7]?
**A.** 94.2%

**Q.** And the viability, T/C [8]?
**A.** 73.8%

**Q.** And the viability, T/C [9]?
**A.** 70.3%

**Q.** And the viability, T/C [10]?
**A.** 47.7%

**Q.** And the viability, T/C [11]?
**A.** 29.4%

**Q.** What about the viability, T/C [12] of the same compound?
**A.** 6.1%

**Q.** What about the viability, T/C [13] of the same compound?
**A.** 108%

**Q.** What about the viability, T/C [14] of the same compound?
**A.** 80.6%

**Q.** And the viability, T/C [15]?
**A.** 53.1%

**Q.** And the viability, T/C [16]?
**A.** 51.5%

**Q.** What about the viability, T/C [17] of the same compound?
**A.** 29.6%

**Q.** What about the viability, T/C [18] of the same compound?
**A.** 5.16%

**Q.** What about the viability, T/C [19] of the same compound?
**A.** 104%

**Q.** What about the viability, T/C [20] of the same compound?
**A.** 76.7%

**Q.** And the viability, T/C [21]?
**A.** 58.5%

**Q.** What about the viability, T/C [22] of the same compound?
**A.** 55.8%

**Q.** What about the viability, T/C [23] of the same compound?
**A.** 31%

**Q.** What about the viability, T/C [24] of the same compound?
**A.** 5.6%

**Q.** What about the viability, T/C [25] of the same compound?
**A.** 89.5%

**Q.** What about the viability, T/C [26] of the same compound?
**A.** 84.5%

**Q.** What about the viability, T/C [27] of the same compound?
**A.** 55.6%

**Q.** And the viability, T/C [28]?
**A.** 56.6%

**Q.** And the viability, T/C [29]?
**A.** 30.3%

**Q.** And the viability, T/C [30]?
**A.** 6.32%

**Q.** And the viability, T/C [31]?
**A.** 67.3%

**Q.** What about the viability, T/C [32] of the same compound?
**A.** 59.1%

**Q.** And the viability, T/C [33]?
**A.** 47.7%

**Q.** And the viability, T/C [34]?
**A.** 42.9%

**Q.** What about the viability, T/C [35] of the same compound?
**A.** 30.8%

**Q.** And the viability, T/C [36]?
**A.** 5.21%

**Q.** Which results are given for `O=c1[nH]cc(F)c(=O)[nH]1` + CN(C)c1ccc(Nc2c3ccc(NC(=O)CCN4CCCC4)cc3nc3cc(NC(=O)CCN4CCCC4)ccc23)cc1?
**A.** IC50 (second compound 0.0316 µM): > 10000 nM; IC50 (second compound 0.1 µM): > 10000 nM; IC50 (second compound 0.316 µM): > 10000 nM; IC50 (second compound 1 µM): > 10000 nM; IC50 (second compound 3.16 µM): > 10000 nM; IC50 (second compound 10 µM): > 10000 nM; viability, T/C [1]: 111%; viability, T/C [2]: 118%; viability, T/C [3]: 94.2%; viability, T/C [4]: 94.4%; viability, T/C [5]: 109%; viability, T/C [6]: 91.1%; viability, T/C [7]: 102%; viability, T/C [8]: 117%; viability, T/C [9]: 105%; viability, T/C [10]: 97%; viability, T/C [11]: 110%; viability, T/C [12]: 89.7%; viability, T/C [13]: 107%; viability, T/C [14]: 92.1%; viability, T/C [15]: 95.4%; viability, T/C [16]: 93.9%; viability, T/C [17]: 95.4%; viability, T/C [18]: 96.4%; viability, T/C [19]: 98.9%; viability, T/C [20]: 101%; viability, T/C [21]: 102%; viability, T/C [22]: 111%; viability, T/C [23]: 105%; viability, T/C [24]: 98.2%; viability, T/C [25]: 89.4%; viability, T/C [26]: 89.6%; viability, T/C [27]: 103%; viability, T/C [28]: 85.6%; viability, T/C [29]: 110%; viability, T/C [30]: 80%; viability, T/C [31]: 66.5%; viability, T/C [32]: 67.4%; viability, T/C [33]: 63.1%; viability, T/C [34]: 75.2%; viability, T/C [35]: 68.4%; viability, T/C [36]: 64.1%
